{
  "source": "paper doi:10.1101/2022.09.09.507370v4",
  "about": "(biorxiv, 2022)",
  "assay_type_in_all_cases": "biochemical",
  "details_in_all_cases": "PS-liposome-stimulated (5.0 μM PS-liposomes), 20 nM enzyme, GTP, pH 7.4",
  "key": {"Dyn2-His6": {"system": "Dyn2-His6"}, "Dyn1-His6": {"system": "Dyn1-His6"}, "Dyn3-His6": {"system": "Dyn3-His6"}},
  "data": [
    {"smiles": "CCCCCCCCCCCCCC[N+](C)(C)C", "note": "[MiTMAB]", "values": [
      {"measurement": "IC50", "setting": "Dyn2-His6", "value": "9.2 ± 2.5", "unit": "µM"},
      {"measurement": "IC50", "setting": "Dyn1-His6", "value": "8.1 ± 3.7", "unit": "µM"},
      {"measurement": "IC50", "setting": "Dyn3-His6", "value": "7.8 ± 3", "unit": "µM"}
    ]}
  ]
}
